Assay results as given in US12312631B1, “High-throughput multiplexed sensitivity and resistance assay” (SAGEMEDIC CORPORATION, priority 2022, dated 2025).
Like-named read-outs stand apart in the source and are kept apart here.

Legend:
[1] = 2% to 4% formalin
A549 cells [2] = assay: ATP release into extracellular fluid or after lysis buffer, with or without Triton X, after PFA; type: cell-based
Procedure: In a factorial design, the cells were a) treated with 0%, 0.2%, or 1% PFA, and b) treated with or without 0.5% Triton X. ATP was then measured either from the extracellular fluids or within the wells after the use of a cell lysis buffer.
One out of 3 wells were incubated with 0%, 0.2%, and 1% PFA for 15 minutes and PFA was washed out 3 times with PBS. Half of the wells were then treated with 0.5% Triton X for 10 minutes and the other half received no Triton. The extracellular fluid from half of the 0.5% Triton X treated wells was then transferred to another well-plate and ATP was measured using a luciferin/luciferase complex. The other half of the 0.5% Triton X treated wells were first treated with a lysis buffer and then ATP was measured using the same luciferin/luciferase complex.

A549 cells [3] = tested on: A549 cells
Procedure: Furthermore, since serum contains proteins, we wanted to know whether incubating and washing with serum could neutralize any potentially residual effect of PFA on ATP measurements. Thus, we created a 4×4 factorial design to expose the cells with 0.0625%, 0.25%, 1%, or 4% of PFA and 0%, 1%, 5%, or 25% of human serum.
For this experiment, A549 cells were plated in 96-well plates with 4 replicates of in 100 μl per well (cell culture medium was DMEM/F12 plus 10% human serum). Cells were fixed with the PFA concentrations for 5 min and washed 3× with phosphate-buffered saline (PBS).
The cells were then incubated at various serum concentrations for 10 min and then washed twice with PBS. Finally, luciferase catalyzed ATP luminescence was measured as per manufacturer's instructions.

luciferase = tested on: luciferase
Procedure: We assessed four groups of A549 cells: with 0.0625% PFA, 0.25% PFA, 1% PFA, and 4% PFA, each of them at 0%, 1%, 5%, or 25% of human serum. For each group, A549 cells were plated in 96 well plates with 4 replicates of 1,000 cells at 100 μl per well. The cell culture medium was DMEM/F12 plus 10% human serum. Luciferase-catalyzed ATP luminescence was then measured using the CellTiter-Glo assay per manufacturer's instructions.
A combination of PFA and serum mixture was then created using a 4×4 factorial design of 0.0625%, 0.25%, 1%, or 4% of PFA, and 0%, 1%, 5%, or 25% of human serum, and incubated for 15 min at room temperature. The mixture was then added to the wells and a second round of RLU measurements were taken within 5 min.

A549 cells [4] = settings: 2% or 4% PFA for 15 min, thoroughly washed out
Procedure: An experiment was therefore conducted to see what if any effect PFA had on cellular ATP content and whether it would still be possible to detect ATP in fixed tissue/cells. Four groups of cells were tested: • Group 1 was not pretreated with PFA (control). • Group 2 was treated with 2% PFA. • Group 3 was pretreated with 2% PFA that was then washed out. • Group 4 was pretreated with 4% PFA that was then washed out.
The experiment was conducted as follows. For each group, A549 cells (Catalog No. CCL-185, ATCC, Manassas, VA, USA) were plated in 96-well plates (200 μl/well) with 8 replicates of 1,000 cells in 50 μl cell culture medium per well (DMEM/F12 plus 10% human serum). Cells in group 1, the control group, was not treated with PFA. Cells in groups 2, 3, and 4 were incubated for 15 min. with 2%, 2%, and 4% PFA, respectively. PFA remained in the wells of group 2 and PFA was removed from groups 3 and 4 by washing 3 times with 100 μl Cell culture medium. Luciferase catalyzed ATP luminescence was measured as per CellTiter-Glo 3D manufacturer's instructions.
Luminescence was measured with a BioTek Synergy LX plate reader (Agilent, Santa Clara, CA, U.S.A.) and calculations were performed to quantify, measure, and/or correlate ATP level with cell viability.
We also used relative luminescence unit (RLU) as arbitrary units to calculate ATP level to cell viability.

C=O [formalin]
ATP still detectable in lysed cells after fixation [1]: almost half

Triton X
ATP release (A549 cells [2]; 0.5% Triton X alone for 10 minutes, no PFA, RLUs similar to lysis buffer): complete ATP release

paraformaldehyde [PFA]
RLU (ATP luminescence) Avg. (A549 cells [3]; PFA 0.06%, average over serum levels): 47,729 RLU | RLU (ATP luminescence) (A549 cells [3]; PFA 0.06%, serum 0%): 39,815 RLU | RLU (ATP luminescence) (A549 cells [3]; PFA 0.06%, serum 1%): 46,022 RLU | RLU (ATP luminescence) (A549 cells [3]; PFA 0.06%, serum 5%): 51,674 RLU | RLU (ATP luminescence) (A549 cells [3]; PFA 0.06%, serum 25%): 53,405 RLU | RLU (ATP luminescence) Avg. (A549 cells [3]; PFA 0.25%, average over serum levels): 58,470 RLU | RLU (ATP luminescence) (A549 cells [3]; PFA 0.25%, serum 0%): 44,249 RLU | RLU (ATP luminescence) (A549 cells [3]; PFA 0.25%, serum 1%): 61,899 RLU | RLU (ATP luminescence) (A549 cells [3]; PFA 0.25%, serum 5%): 59,651 RLU | RLU (ATP luminescence) (A549 cells [3]; PFA 0.25%, serum 25%): 68,082 RLU | RLU (ATP luminescence) Avg. (A549 cells [3]; PFA 1%, average over serum levels): 40,598 RLU | RLU (ATP luminescence) (A549 cells [3]; PFA 1%, serum 0%): 38,892 RLU | RLU (ATP luminescence) (A549 cells [3]; PFA 1%, serum 1%): 45,576 RLU | RLU (ATP luminescence) (A549 cells [3]; PFA 1%, serum 5%): 34,194 RLU | RLU (ATP luminescence) (A549 cells [3]; PFA 1%, serum 25%): 43,731 RLU | RLU (ATP luminescence) Avg. (A549 cells [3]; PFA 4%, average over serum levels): 26,464 RLU | RLU (ATP luminescence) (A549 cells [3]; PFA 4%, serum 0%): 22,097 RLU | RLU (ATP luminescence) (A549 cells [3]; PFA 4%, serum 1%): 34,860 RLU | RLU (ATP luminescence) (A549 cells [3]; PFA 4%, serum 5%): 23,912 RLU | RLU (ATP luminescence) (A549 cells [3]; PFA 4%, serum 25%): 24,987 RLU | RLU (ATP luminescence) Avg. (A549 cells [3]; average over PFA concentrations, serum 0%): 36,263 RLU | RLU (ATP luminescence) Avg. (A549 cells [3]; average over PFA concentrations, serum 1%): 47,089 RLU | RLU (ATP luminescence) Avg. (A549 cells [3]; average over PFA concentrations, serum 5%): 42,358 RLU | RLU (ATP luminescence) Avg. (A549 cells [3]; average over PFA concentrations, serum 25%): 47,551 RLU | RLU (ATP luminescence) Avg. (A549 cells [3]; average over all PFA concentrations and serum levels): 43,315 RLU | luciferase activity blocked (luciferase; 1% PFA): about 90% | luciferase activity blocked (luciferase; 4% PFA): almost completely blocked | change of RLUs (luciferase; up to 0.25% PFA added to the CellTiter-Glo solution): did not change the RLUs | ATP released into the extracellular fluid (A549 cells [2]; 0.2% and 1% PFA, then 0.5% Triton X, same effect after cell lysis buffer): inhibited in a dose-dependent manner | ATP leakage into the extracellular fluid (A549 cells [2]; 0.2% or 1% PFA, without Triton X): neither 0.2% nor 1% PFA lead to some ATP leakage | ATP luminescence compared with the control group (A549 cells [4]): less than half of the control group
